In article PMC11478212, “Antitumoral and Antiproliferative Potential of Synthetic Derivatives of Scorpion Peptide IsCT1 in an Oral Cavity Squamous Carcinoma Model” (Molecules, 2024):

Tests used:
Assay type in all cases: cell-based
[1] = test system: human erythrocytes; test: Hemolytic activity assay; conditions: 0.13–128 μmol L−1 in PBS, n = 3; 1% SDS positive control, PBS negative control
Method: Figure 1 (a) Helical wheel projections of the IsCT1, AFPK-IsCT1, KKK-IsCT1, and IsCT-P peptides were generated using the Heliquest server (https://heliquest.ipmc.cnrs.fr/, accessed on 15 July 2024). In these projections, yellow, gray, and green circles represent hydrophobic amino acids, while blue and pink circles denote hydrophilic amino acids. (b) Resistance to degradation assays for all peptides were performed over 6 h in a solution containing 25% fetal bovine serum (FBS). These experiments were conducted in triplicate and aliquots were collected for analysis at 0, 0.5, 1, 2, 4, and 6 h of incubation. The aliquots were subsequently analyzed using high-performance liquid chromatography (HPLC) after each incubation period. The degradation kinetics of the peptides were determined by comparing the integrated peak area associated with the peptide at the start of the experiment (t = 0 h) with the integrated peak area at subsequent time points (t = 0.5, 1, 2, 4, 6 h). (c) The hemolytic activity of synthetic peptides analogous to IsCT1 was assessed on human erythrocytes within a concentration range of 0.13–128 μmol L^−1 in phosphate-buffered saline (PBS) (n = 3). […]
Cell survival was assessed using an MTT assay. […] Absorbance was then measured at a wavelength of 540 nm using a microplate reader. […]

[2] = test system: SCC-25 tumor cells; test: Cell cycle phase and DNA fragmentation analysis (flow cytometry); conditions: 24 h, IsCT-P and AC-AFPK-IsCT1 at IC50, others 100 µM
Method: Figure 3 Analysis of cell cycle phases following a 24 h treatment with synthetic analogs of IsCT1 peptides. The indicated cells were treated at the IC50 values obtained for the IsCT-P and AC-AFPK-IsCT1 peptides and at a concentration of 100 µM for the other peptides. (a) Representative histograms of cell distribution across cell cycle phases; (b) bar graph showing the correlation of the effect on cell cycle and fragmented DNA, expressed as the mean ± SD of three independent SCC-9 tumor cell experiments; (c) bar graph showing the correlation of the effect on cell cycle and fragmented DNA, expressed as the mean ± SD of three independent experiments on SCC-25 tumor cells; (d) bar graph showing the correlation of the effect on cell cycle and fragmented DNA, expressed as the mean ± SD of three independent experiments of normal FN1 cells; (e) bar graph showing the correlation of the effect on cell cycle and fragmented DNA, expressed as the mean ± SD of three independent experiments of normal J774 cells. Statistical differences were obtained using ANOVA and Tukey–Kramer multiple comparison tests. * p < 0.05, ** p < 0.01, and *** p < 0.001 denote significance. ns = not significant.
Tumor (SSC-9 and SSC-25) and normal cells (FN1 and J-774) were subjected to treatment for 24 h at the peptides’ IC50 concentrations. Treated and control cells were trypsinized and centrifuged at 1200 rpm for 5 min. The resulting pellet was resuspended in 1 mL of cold buffer, followed by the addition of 3 mL of absolute ethanol. Samples were stored at −20 °C for 24 h. The samples were then centrifuged at 1500 rpm for 10 min and resuspended in 200 μL of FACS buffer containing 0.1% Triton X-100 (Sigma-Aldrich, St. Louis, MO, USA), 50 μg/mL propidium iodide (Sigma-Aldrich), and 1 µL of RNAse (200×). This mixture was kept at room temperature and protected from light for 30 min. The samples were then transferred to cytometry tubes and analyzed using a FACScanto flow cytometer (BD) with 10,000 events, and histograms were acquired and analyzed using ModFit LT 5.0 software.

[3] = test system: SCC-25 tumor cells; test: Mitochondrial potential by confocal microscopy (MitoRed/DAPI); conditions: 24 h, IsCT-P and AC-AFPK-IsCT1 at IC50, others 100 µM, MitoRed, DAPI
Method: (§1) Figure 5 Photomicrographs of tongue squamous cell carcinoma tumor cells (SCC-9 and SCC-25) and macrophages (J774), with mitochondria stained red (MitoRED) and nuclei stained blue (DAPI), analyzed using confocal laser microscopy. The indicated cells were treated at the IC50 values obtained for the IsCT-P and AC-AFPK-IsCT1 peptides and at a concentration of 100 µM for the other peptides for a period of 24 h.
(§2) For the confocal microscopy ana.lysis, tumor and normal cells were cultured in 24-well plates containing round coverslips with RPMI and Leibovitz medium, respectively, supplemented with 10% FBS and incubated with 5% CO2 at 37 °C for 24 h. Samples from the control and treated groups were subjected to the process of removing the culture medium and washing with RPMI medium. A total of 200 nML^−1 of MitoRed (Sigma-Aldrich, USA) was then added and the cells were incubated for 1 h in the dark at 37 °C. After incubation, the cells were washed with PBS, incubated with MitoRed, and fixed with 4% paraformaldehyde for 30 min. The cells were then washed with PBS and incubated. A total of 10 µL of VECTASHIELD® antifade with DAPI (Vector Laboratories, Burlingame, CA, USA) was used on the slide to promote the sealing and marking of the nucleus. The slides were stored in a closed place until the day of reading. Coverslips were placed on slides for observation under a confocal laser fluorescence microscope (Fluoview™ 300) and images were documented and analyzed.

[4] = test system: SCC-9 tumor cells; test: as above; conditions: 24 h, IsCT-P and AC-AFPK-IsCT1 at IC50, others 100 µM, MitoRed, DAPI
Method: as §1, §2

| Substance | hemolytic activity [1] | fragmented DNA [2] [%] | change in mitochondrial electric potential (confocal) [3] | change in mitochondrial electric potential (confocal) [4] |
| --- | --- | --- | --- | --- |
| Ac-ALGKFWPKIKSLF-NH2 [AC-AFPK-IsCT1] | did not show hemolytic activity at high concentrations | 16.5 | promoted a reduction in the mitochondrial electric potential | promoted a reduction in the mitochondrial electric potential |
| H-ILKKIWKPIKKLF-NH2 [IsCT-P] | caused the hemolysis | 32.4 | promoted a reduction in the mitochondrial electric potential | promoted a reduction in the mitochondrial electric potential |
